Experimental data as given in patent US20240238392A1 (priority 2023, published 2024).
Where no end group is shown, it is not given here.

How the values were obtained:
[1] = tested on: isolated cardiac fibroblasts; conditions: cited from earlier work
[2] = tested on: chronic heart failure caused by systolic dysfunction; conditions: human, in vivo
[3] = tested on: chronic heart failure caused by diastolic dysfunction; conditions: human, in vivo
neurokinin-1 receptor = neurokinin-1 receptor (Rattus norvegicus, UniProt P14600); conditions: in vivo; cited from earlier work
[4] = tested on: acute heart failure caused by viral infection; conditions: human, in vivo

neurokinin-1 receptor, sequence (P14600 whole entry): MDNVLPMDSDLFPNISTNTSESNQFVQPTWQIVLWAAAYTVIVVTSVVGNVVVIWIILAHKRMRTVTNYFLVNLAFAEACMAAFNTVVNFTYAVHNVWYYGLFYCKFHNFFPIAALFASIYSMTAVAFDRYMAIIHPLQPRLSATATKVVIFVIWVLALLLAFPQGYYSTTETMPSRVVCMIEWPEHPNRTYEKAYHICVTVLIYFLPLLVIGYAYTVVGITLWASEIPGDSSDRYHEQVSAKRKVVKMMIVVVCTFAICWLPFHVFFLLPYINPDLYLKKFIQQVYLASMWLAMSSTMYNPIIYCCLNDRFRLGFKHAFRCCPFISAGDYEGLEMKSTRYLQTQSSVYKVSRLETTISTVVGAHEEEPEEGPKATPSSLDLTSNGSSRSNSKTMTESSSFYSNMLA

Compound: substance P: sensory nerve neuropeptide (tachykinin) acting on the neurokinin-1 receptor (RPKPQQFFGLM; ends and bridges not checked; UniProt P20366 58-68, looked up)
- fibroblast function [1]: no changes in fibroblast function were observed
- genes related to cell-cell adhesion, cell-matrix adhesion, and extracellular matrix regulation [1]: transiently up-regulated

Compound: botulinum toxin
- Substance P blood levels [2]: lower than before
- patient-reported breath and fatigue [2]: significant improvement in breath and fatigue
- glutamate blood level [3]: lower than before
- patient-reported breath and pulmonary edema [3]: significant improvement in breath and pulmonary edema
- substance P blood level [3]: lower than before

Compound: CC(=O)N[C@@H](Cc1c[nH]c2ccccc12)C(=O)OCc1cc(C(F)(F)F)cc(C(F)(F)F)c1 [L732138]
- cardiac fibrosis in SHR (neurokinin-1 receptor): prevented
- increase of fetal gene expression by cardiomyocytes in SHR (neurokinin-1 receptor): prevented
- upregulation of endothelin-1 in SHR (neurokinin-1 receptor): prevented

Compound: [N-]=[N+]=O [nitrous oxide]
- glutamate blood level [4]: lower than before
- patient-reported respiratory rate and peripheral edema [4]: significant improvement in respiratory rate and peripheral edema
- substance P blood level [4]: lower than before
